Assay results taken from patent US20050181947A1, “Fungicidal seed treatment agent for oilseed rape” (BASF Agro BV., Amhem (NL)-Wadenswil-Branch, priority 2002, published 2005).

How the values were obtained:
[1] = test system: Brassica napus (winter rape, species Bristol); assay: Field trial of treated oilseed rape seed: plant biomass (determining the weight); format: in vivo; conditions: for Plant biomass (% - relative to untreated): standard treatment agent, rate not given, winter rape Bristol, untreated = 100
Method: (§1) The seed treated in accordance with the production examples described above was tested in field trials at a sowing rate of 4 kg per hectare. The individual test parameters were evaluated using the methods usually used in practice in each case, such as determining the weight for plant biomass and grading in the event of fungal infestation.
(§2) The increase in the plant biomass and the suppression of fungal infestation in both the exemplary embodiments of treatment of oilseed rape seed with fluquinconazole is higher compared with the untreated control and compared with the active substance dimethomorph which was co-tested as a reference and is used as the standard treatment agent in oilseed rape for protection against downy mildew.

[2] = test system: downy mildew; assay: Field trial of treated oilseed rape seed: foliar infestation with downy mildew (grading); format: in vivo, Brassica napus; conditions: 24 days after sowing; standard treatment agent, rate not given; winter rape Bristol; untreated = 15
Method: as §1, §2

[3] = test system: Fungal infestation of the leaves; assay: Field trial of treated oilseed rape seed: fungal infestation of the leaves (grading); format: in vivo, Brassica napus
Method: as §1, §2

[4] = test system: Brassica napus (winter rape, species Express); assay: Field trial of treated oilseed rape seed: yield; format: in vivo; conditions: seed treatment; independent of the site
Method: as §1
The yield after a period of vegetation is higher after treatment of the oilseed rape seed with fluquinconazole compared with the untreated control. This effect is independent of the site.

[5] = seed treatment, both exemplary embodiments

| SMILES | Plant biomass (% - relative to untreated) ([1]; 24 days after sowing) | Plant biomass (% - relative to untreated) ([1]; 41 days after sowing) | Foliar infestation with downy mildew (% total infestation) [2] | Fungal infestation of the leaves (% total infestation) ([3]; 41 days after sowing, standard treatment agent, rate not given, winter rape Bristol, untreated = 30) | Increase in the plant biomass compared with the untreated control and with dimethomorph [1, 5] | Yield after a period of vegetation compared with the untreated control [4] | Suppression of fungal infestation compared with the untreated control and with dimethomorph [3, 5] |
| --- | --- | --- | --- | --- | --- | --- | --- |
| COc1ccc(C(=CC(=O)N2CCOCC2)c2ccc(Cl)cc2)cc1OC [Dimethomorph] | 105% | 102% | 5 % total infestation | 25 % total infestation |  |  |  |
| O=c1c2cc(F)ccc2nc(-n2cncn2)n1-c1ccc(Cl)cc1Cl [fluquinconazole, 3-(2,4-dichlorophenyl)-6-fluoro-2-(1H-1,2,4-triazol-1-yl)-quinazolin-4(3H)-one] |  |  |  |  | higher | higher | higher |
